# Test results: ChEMBL document CHEMBL1201862, “PubChem BioAssay data set” (2004)
# Activity calls are given as the source filed them.
# Key:
# [1] = Trypanosoma cruzi growth suppression in host cells – NIH3T3 host cells, beta-gal luminescence, confirmation (AID 2044); format: functional, cell-based;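 also: intracellular parasites grown in NIH/3T3 mouse fibroblasts as host cells; luminescent beta-galactosidase reporter signal from transgenic T. cruzi replicating inside host cells; inhibitors lower the luminescence signal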
# [2] = NIH3T3 cell viability loss – ATP luminescence, mouse fibroblasts, counter-screen, dose response (AID 2010); format: functional, cell-based;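 also: cells exposed to compound for about 90 hours before reading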
# [3] = molecular target: T1, Heat shock factor protein 1 (Mus musculus, UniProt P38532); assay: decrease of HSF1-responsive luciferase luminescence – cell-based, NIH3T3, dose retest, confirmation (AID 2382); format: functional;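 also: NIH3T3 fibroblasts with HSF1-driven luciferase reporter stressed by proteasome inhibitor MG132; luminescence from HSF1-driven luciferase expression after 8 hours of MG132 stress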
# T1 sequence (P38532 whole entry): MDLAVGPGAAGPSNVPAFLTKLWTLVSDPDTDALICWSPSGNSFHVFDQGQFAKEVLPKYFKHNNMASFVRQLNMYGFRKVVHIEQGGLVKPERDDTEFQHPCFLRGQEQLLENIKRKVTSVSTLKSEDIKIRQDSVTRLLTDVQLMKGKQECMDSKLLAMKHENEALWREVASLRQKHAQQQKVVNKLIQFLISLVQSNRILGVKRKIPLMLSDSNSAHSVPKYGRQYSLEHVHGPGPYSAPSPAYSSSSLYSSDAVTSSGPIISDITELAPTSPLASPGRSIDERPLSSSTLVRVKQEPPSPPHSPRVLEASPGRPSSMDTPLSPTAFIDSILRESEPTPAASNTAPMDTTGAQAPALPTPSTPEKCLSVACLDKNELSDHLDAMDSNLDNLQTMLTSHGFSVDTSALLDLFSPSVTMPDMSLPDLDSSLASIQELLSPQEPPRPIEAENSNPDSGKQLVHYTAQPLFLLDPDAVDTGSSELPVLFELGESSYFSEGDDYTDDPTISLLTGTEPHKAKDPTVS
# [4] = molecular target: Cytochrome P450 3A4 (Homo sapiens, UniProt P08684);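 also: CYP3A4 tested as one member of a cytochrome P450 panel screen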
# [5] = molecular target: Cytochrome P450 2C19 (Homo sapiens, UniProt P33261); assay: Cytochrome panel assay with activity outcomes. Panel member name: p450-cyp2c19 Compounds with AC50 equal or less than 10 uM are considered active; format: functional
# [6] = molecular target: T1, Heat shock factor protein 1; assay: enhancement of HSF1-driven luciferase signal – cell-based, NIH3T3, luminescence, dose retest, confirmation (AID 435004); format: functional;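 also: stress induced by proteasome inhibitor MG132 added 30 min after compound; luciferase reporter driven by HSF1 response element in NIH3T3 cells; actives raise luminescence as potentiators of the MG132 stress response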
# [7] = luciferase reporter signal suppression in cells – H4 neuroglioma cells, luminescence, dose response (AID 1990); format: functional, cell-based
# [8] = Luminescence Cell-Based Dose Response HTS to Identify Inhibitors of 5'UTR Stem-Loop Driven Prion Protein mRNA Translation in H4 Neuroglioblastoma Cells. [Related pubchem assays: 1827 (Project Summary), 1813 (Primary HTS)]; format: functional
# [9] = alpha-synuclein stem-loop luciferase translation blockers – H4 neuroglioma cells, luminescence, confirmation (AID 1988); format: functional, cell-based
# [10] = test system: Streptococcus sp. 'group A'; assay: Streptococcus pyogenes SK(-)GAS viability under kanamycin – luminescence, BacTiterGlo, confirmation, counter-screen for streptokinase expression inhibitor project, dose response (AID 1900); format: functional, organism-based
# [11] = test system: Streptococcus; assay: GAS UMAA2166 growth inhibition – luminescence, BacTiterGlo, counter-screen for streptokinase expression inhibitor project, dose response (AID 1915); format: functional, organism-based;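 also: potency for reduction of bacterial viability or growth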
# Sequence of Cytochrome P450 2C19 (P33261 whole entry): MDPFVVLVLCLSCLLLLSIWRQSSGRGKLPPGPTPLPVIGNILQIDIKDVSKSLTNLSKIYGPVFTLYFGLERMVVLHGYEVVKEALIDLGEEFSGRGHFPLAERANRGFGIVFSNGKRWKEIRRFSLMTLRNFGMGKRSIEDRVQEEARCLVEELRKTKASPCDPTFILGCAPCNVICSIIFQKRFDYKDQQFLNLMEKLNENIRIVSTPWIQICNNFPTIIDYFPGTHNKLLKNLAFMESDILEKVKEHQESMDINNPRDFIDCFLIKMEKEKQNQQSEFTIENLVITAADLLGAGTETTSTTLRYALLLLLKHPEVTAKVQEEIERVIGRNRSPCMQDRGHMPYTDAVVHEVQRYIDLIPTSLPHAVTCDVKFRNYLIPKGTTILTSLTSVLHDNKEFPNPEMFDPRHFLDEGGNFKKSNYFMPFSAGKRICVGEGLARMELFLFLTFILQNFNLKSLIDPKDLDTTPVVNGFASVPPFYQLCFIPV
# Sequence of Cytochrome P450 3A4 (P08684 whole entry): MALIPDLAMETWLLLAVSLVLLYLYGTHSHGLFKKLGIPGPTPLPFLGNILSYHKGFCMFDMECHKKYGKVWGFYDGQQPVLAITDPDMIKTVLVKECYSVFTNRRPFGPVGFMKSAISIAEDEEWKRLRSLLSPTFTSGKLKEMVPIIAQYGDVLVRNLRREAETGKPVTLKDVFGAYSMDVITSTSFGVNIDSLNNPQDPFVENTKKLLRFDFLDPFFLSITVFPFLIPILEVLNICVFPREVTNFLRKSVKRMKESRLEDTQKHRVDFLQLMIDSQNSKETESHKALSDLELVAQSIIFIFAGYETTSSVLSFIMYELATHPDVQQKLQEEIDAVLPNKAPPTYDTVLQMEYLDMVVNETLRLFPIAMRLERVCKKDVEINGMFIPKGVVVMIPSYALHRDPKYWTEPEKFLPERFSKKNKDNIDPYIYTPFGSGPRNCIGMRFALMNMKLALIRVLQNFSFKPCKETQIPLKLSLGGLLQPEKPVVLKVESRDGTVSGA
structure (smiles),measurement,setting,value
Cc1ccc(N2C(=O)c3ccccc3NC2C(C)Cc2ccc3c(c2)OCO3)cc1 (stereo unspecified),EC50,[1],2.61 µM (active)
same,EC50,[2],> 30 µM (not active)
Cc1ccc([N+](=O)[O-])c(OCCCN2CCC(Cc3ccccc3)CC2)c1,EC50,[3],> 195 µM (not active)
C=CCOc1ccc(/C=C/C(=O)OCC(=O)NCC2CCCCC2)cc1,EC50,[3],> 195 µM (not active)
COc1ccc(/C=C2\CCCC3C2=NN(C(=O)COC(=O)CNC(=O)c2ccccc2)C3c2ccc(OC)cc2)cc1 (stereo unspecified),EC50,[3],> 195 µM (not active)
COc1ccc(C(=O)N2CCC3(CCCN(CC(C)C)C3)CC2)cc1,AC50,[4],25.1 µM (inconclusive)
Cc1ccc(N(C)C(=O)CN(C)S(=O)(=O)c2ccc3c(c2)n(C)c(=O)c(=O)n3C)cc1,EC50,[3],> 195 µM (not active)
CCOc1c(C)cc(S(=O)(=O)NCc2cccnc2)c(C)c1C,EC50,[3],> 195 µM (not active)
Oc1nc(CN2CCN(C/C=C/c3ccccc3)CC2)nc2cc(Cl)ccc12,EC50,[1],0.405 µM (active)
same,EC50,[2],> 60 µM (not active)
Cc1cccc(C)c1NC(=O)c1cc2c(=O)c3ccccc3oc2nc1C(F)(F)F,AC50,[5],inconclusive
same,AC50,[4],0.0501 µM (inconclusive)
CCOC(=O)c1c(-c2ccc(C)cc2)cn2ccccc12,EC50,[6],> 260 µM (inactive)
COC(=O)C1=C(C)N(CCc2c[nH]c3ccc(OC)cc23)C(=O)C1,EC50,[7],> 120 µM (not active)
same,EC50,[8],> 120 µM (not active)
same,EC50,[9],> 120 µM (not active)
CO[C@@H]1COC(=O)CCC[C@@H](C)[C@H](OC)COC(=O)[C@H](Cc2ccccc2)NC(=O)C/C=C\[C@H]1C,AC50,[5]; read-out: AC50,0.00251 µM (inconclusive)
COCCNC(=O)c1cccc(OC2CCN(Cc3ccc(Cl)c(F)c3)CC2)c1,EC50,[6],> 260 µM (inactive)
S=C(Nc1ccc(Br)cc1Cl)NC1CCN(Cc2ccccc2)CC1,EC50,[1],0.228 µM (active)
same,EC50,[2],> 30 µM (not active)
N=c1sccn1CC(=O)Nc1cc(Cl)ccc1Oc1ccccc1,EC50,[6],> 260 µM (inactive)
COc1cccc(-n2c(SCC(=O)Nc3sc4c(c3C(N)=O)CCC4)nc3ccccc3c2=O)c1,EC50,[1],2.9 µM (active)
same,EC50,[2],> 60 µM (not active)
CC(C)c1cccc2cc3c(nc12)-c1cccc(=O)n1C3,AC50,[5]; read-out: AC50,39.8 µM (inconclusive)
CSCC[C@H](NC(=O)CC(C)(C)C)c1nc2ccccc2[nH]1,AC50,[4],15.8 µM (inconclusive)
O=C(NCCN1Cc2ccccc2C1=O)c1cccs1,EC50,[6],> 260 µM (inactive)
COc1ccc(C(=O)NCc2nnc(SCC(=O)N3CCC(C)CC3)o2)cc1OC,EC50,[3],> 195 µM (not active)
N#CCn1c2ccccc2c2nc3ccccc3nc21,EC50,[7],23.3 µM (active)
same,EC50,[8],> 120 µM (not active)
same,EC50,[9],> 120 µM (not active)
CC(=O)C1=C(O)C=C(c2ccco2)CC1c1ccco1 (stereo unspecified),AC50,[5]; read-out: AC50,2.24 µM (inconclusive)
same,AC50,[4],20 µM (inconclusive)
O=C(Nc1nc(-c2ccccc2)cs1)C1CCCCN1S(=O)(=O)c1ccc(Cl)cc1 (stereo unspecified),EC50,[1],2.22 µM (active)
same,EC50,[2],> 60 µM (not active)
CC(=O)c1[nH]c(C)c(C(C)=O)c1C,AC50,[4],20 µM (inconclusive)
CC1CCCC(C)N1CC(O)COCC1COc2ccccc2O1.Cl (stereo unspecified),AC50,[5],inconclusive
Cc1cc(-c2c(C)[nH]n(-c3ccc(Cl)cc3)c2=O)[nH]n1,EC50,[10],2.51 µM (active)
same,EC50,[11],> 150 µM (not active)
COc1cc(OC)c(OC)cc1/C=N/NC(=S)NCC1CCCO1 (stereo unspecified),EC50,[3],> 195 µM (not active)
O=[N+]([O-])c1ccccc1/C=N/n1c(S)nnc1COc1ccccc1,AC50,[5]; read-out: AC50,11.2 µM (inconclusive)
COc1cccc2cc(C(=O)NCc3ccco3)/c(=N/c3ccc(C(=O)O)cc3)oc12,EC50,[3],> 195 µM (not active)
C/C(=N\Nc1nnc(-c2ccccc2)c(-c2ccccc2)n1)c1cccc([N+](=O)[O-])c1,AC50,[5]; read-out: AC50,17.8 µM (inconclusive)
same,AC50,[4],35.5 µM (inconclusive)
C/C(=N\CCc1c(C)[nH]c2ccc(OCc3ccccc3)cc12)C1=C(O)CC(c2ccccc2)CC1=O (stereo unspecified),EC50,[1],2.1 µM (active)
same,EC50,[2],> 60 µM (not active)
Oc1ccc(OCc2ccccc2)cc1 [MONOBENZONE],AC50,[5]; read-out: AC50,6.31 µM (inconclusive)
